Measurements taken from patent publication US20160193240A1, “Ulmoside-A: Useful For Prevention Or Cure Of Metabolic Diseases” (COUNCIL OF SCIENTIFIC & INDUSTRIAL RESEARCH, priority 2013, published 2016).
Marks after values point to notes of the source that are not given here.

Key:
C2C12 myotubes = assay: Western blot of PGC-1α, PPAR and GLUT4 in C2C12 myotubes; format: cell-based, mouse; details: 10 nM, 24 or 48 hours
Description: B. ULMA induces protein levels of PGC-1α, PPARα and Glut4. C2C12 myotubes in 10 cm dish were treated with vehicle (DMSO) or 10 nM ULMA in DMSO for 24 or 48 h followed by western blotting with indicated antibodies. Data is representative of three independent experiments showing identical pattern.
Adiponectin enhances transcription of genes regulating fatty acid transport, fatty acid-oxidation and mitochondrial uncoupling proteins in skeletal muscle and myotubes (T. Kadowaki, T. Yamauchi, N. Kubota, K. Hara, K. Ueki, K. Tobe. J Clin Invest. 116(7): 1784-92. 2006; S. Dridi, M. Taouis. Journal of Nutritional Biochemistry 20 (2009): 831-839. 2009; M. Iwabu, T. Yamauchi, M. Okada-Iwabu, K. Sato, T. Nakagawa, M. Funata, M. Yamaguchi, S. Namiki, R. Nakayama, M. Tabata, H. Ogata, N. Kubota, I. Takamoto, Y. K. Hayashi, N. Yamauchi, H. Waki, M. Fukayama, I. Nishino, K. Tokuyama, K. Ueki, Y. Oike, S. Ishii, K. Hirose, T. Shimizu, K. Touhara, T. Kadowaki. Nature; 464(7293):1313-1319. 2010). The ability of ULMA to influence expression of these genes were checked in c2c12 myotubes. C2C12 myotubes in 6 well plates were treated with 10 nM ULMA or vehicle (DMSO) for 12 hours or 24 hours. Following treatment, the cells were washed with ice-cold PBS and RNA was extracted using Trizol (Ambion) according to manufacturer's instructions. The RNAs were quantitated using a spectrophotometer (nanophotometer; Implen GMBH) and 1 μg RNA was used to prepare cDNA using a cDNA synthesis kit (Applied Biosystems). cDNAs were then used for quantitative real-time PCR for indicated genes (FIG. 3A) using Veriquest SYBR green QRT-PCR mastermix (US Biologicals) and a Roche lightcycler 480 thermal cycler (Roche Diagnostics). Beta-actin was used as normalizing control. The relative mRNA level was quantitated using ddCT method. […] Adiponectin is also known to induce muscle and adipose glucose transporter 4 (GLUT4) expressions; and the ability of ULMA to induce the expression of GLUT4, PPAR and PGC-1α was investigated by western blotting. […]

wistar rats = assay: Dexamethasone induced loss of body weight and death in rats; details: for Final body weight (g) / Survival/group (%): 2 weeks
Description: All animal experiments were conducted in accordance with current legislation on animal experiments [Institutional Animal Ethical Committee (IAEC)] at C.D.R.I. In all animal experiments, rats were individually housed at 21° C., in 12-h light:12-h dark cycles. All animals had access to normal chow diet and water ad libitum.
Food intake was measured daily and the rats were weighed each week. The rats were fasted overnight (O/N) on day 14th and on day 15th oral glucose tolerance test was performed. Following oral glucose tolerance test (OGTT), rats were kept with food and water ad libitum for one day. On day 16th, rats were fasted again O/N and then euthanized. At autopsy, from 5 animals/group, tissues were collected and snap frozen in liquid nitrogen. Blood was collected from cardiac punctures. Plasma was separated from whole blood by centrifugation at 3000 rpm for 20 min immediately after collection of blood and stored at −80° C. until further analysis. […] (quadriceps) skeletal muscles were processed for RNA and protein extraction, followed by quantitative real-time PCR (QRT-PCR) analysis. Two animals from each group were used for photography post autopsy.

rats = details: cited from earlier work
db/db mice = assay: Body weight of db/db mice; format: in vivo, mouse; details: 5 mg/kg ULMA for 15 d
Description: 8 week old db/db mice were treated with vehicle (V; 1% gum acacia) or with 5 mg/kg ULMA for 15 days and the body weights were measured on 0th, 7th, 10th, or 15th day of treatment and plotted. ** p<0.01, n=6.
8 week old female db/db mice (n=6) weighing 40-50 g were divided into 2 groups and maintained as above. Control groups received vehicle (1% gum acacia) and ULMA groups received 5 mg/kg bw ULMA in 1% gum acacia for […]. Body weight and blood glucose were measured at the beginning and end of the studies.

O=C1c2c(cc(O)c([C@@H]3O[C@H](CO)[C@@H](O)[C@H](O)[C@H]3O)c2O)O[C@@H](c2ccc(O)c(O)c2)[C@@H]1O [ULMA, (2S,3S)-(+)-3′,4′,5,7-tetrahydroxydihydroflavonol-6-C-β-D-glucopyranoside]
GLUT4 protein level (C2C12 myotubes): induced protein levels | PGC-1α protein level (C2C12 myotubes): induced protein levels | PPAR protein level (C2C12 myotubes): induced protein levels | Final body weight (g) (wistar rats; Dex + ULMA-1 mg): 176.5 ± 5.9^c g | Survival/group (%) (wistar rats; Dex + ULMA-1 mg): 73.3% | Final body weight (g) (wistar rats; Dex + ULMA-5 mg): 192.7 ± 3.8^b,c g | Survival/group (%) (wistar rats; Dex + ULMA-5 mg): 100% | change in body weight in control animals (wistar rats; rat, in vivo): did not cause any significant change | effect on ovariectomy-induced osteoporosis (rats): mitigated ovariectomy-induced osteoporosis | body weight compared to vehicle treated control mice (db/db mice): significantly reduced body weight
